Data taken from ChEMBL document CHEMBL4699464, “Talascortenes A-G, Highly Oxygenated Diterpenoid Acids from the Sea-Anemone-Derived Endozoic Fungus Talaromyces scorteus AS-242” (2020).
Converted amounts (≈) assume the structure as drawn.

Tests used:
Assay type in all cases: functional
Vibrio harveyi = experiment: Antimicrobial activity against Vibrio harveyi QDIO-7 by serial dilution technique
Gaeumannomyces graminis = experiment: Antimicrobial activity against Gaeumannomyces graminis QDAU-21 by serial dilution technique
Edwardsiella tarda = experiment: Antimicrobial activity against Edwardsiella tarda QDIO-9 by serial dilution technique
Pseudomonas aeruginosa = experiment: Antimicrobial activity against Pseudomonas aeruginosa QDIO-4 by serial dilution technique
Ceratobasidium cereale = experiment: Antimicrobial activity against Rhizoctonia cerealis QDAU-20 by serial dilution technique
Aeromonas hydrophila = experiment: Antimicrobial activity against Aeromonas hydrophila QDIO-1 by serial dilution technique
Escherichia coli = experiment: Antimicrobial activity against Escherichia coli EMBLC-1 by serial dilution technique
Vibrio parahaemolyticus = experiment: Antimicrobial activity against Vibrio parahaemolyticus QDIO-8 by serial dilution technique
Fusarium oxysporum = experiment: Antimicrobial activity against Fusarium oxysporum QDAU-8 by serial dilution technique
Micrococcus luteus = experiment: Antimicrobial activity against Micrococcus luteus QDIO-3 by serial dilution technique
[1] = system: Colletotrichum gloeosporioides; experiment: Antimicrobial activity against Colletotrichum gloeosporioides QDAU-2 by serial dilution technique

| MIC (Vibrio harveyi) [µg/mL] | MIC (Gaeumannomyces graminis) [µg/mL] | MIC (Edwardsiella tarda) [µg/mL] | MIC (Pseudomonas aeruginosa) [µg/mL] | MIC (Ceratobasidium cereale) [µg/mL] | MIC (Aeromonas hydrophila) [µg/mL] | MIC (Escherichia coli) [µg/mL] | MIC (Fusarium oxysporum) [µg/mL] | MIC (Micrococcus luteus) [µg/mL] | MIC [1] [µg/mL] | Structure (SMILES) | MIC (Vibrio parahaemolyticus) [µg/mL] |
| --- | --- | --- | --- | --- | --- | --- | --- | --- | --- | --- | --- |
| 8 (≈ 23.9 µM) | > 32 | > 32 | > 32 | > 32 | 16 (≈ 47.8 µM) | 16 (≈ 47.8 µM) | > 32 | > 32 | > 32 | C=C[C@]1(C)CCC2=C(CC[C@]3(O)[C@@](C)(C(=O)O)CCC[C@]23C)[C@H]1O | > 32 |
| > 32 | > 32 | > 32 | > 32 | > 32 | > 32 | 8 (≈ 22.8 µM) | > 32 | > 32 | > 32 | C=C[C@]1(C)CCC2=C(CC[C@@]3(O)[C@@](C)(C(=O)O)[C@H](O)CC[C@]23C)[C@H]1O | > 32 |
| > 32 | 4 (≈ 11.9 µM) | 16 (≈ 47.6 µM) | 16 (≈ 47.6 µM) | 8 (≈ 23.8 µM) | > 32 | 32 (≈ 95.1 µM) | 16 (≈ 47.6 µM) | 2 (≈ 5.94 µM) | > 32 | C[C@]1(O)C[C@]23CC[C@H]1C[C@@H]2[C@@]1(C)CCC[C@](C)(C(=O)O)[C@]1(O)CC3 | > 32 |
| > 32 | > 32 | > 32 | > 32 | > 32 | > 32 | 8 (≈ 22.7 µM) | > 32 | > 32 | > 32 | C=C[C@]1(C)CC[C@@]2(O)[C@](O)(CC[C@]3(O)[C@]2(C)CCC[C@]3(C)C(=O)O)C1 | > 32 |
| > 32 | > 32 | > 32 | > 32 | > 32 | > 32 | > 32 | > 32 | 4 (≈ 10.3 µM) | > 32 | C=C[C@H]1[C@@H]2CC[C@@]3(O)[C@@](C)(C(=O)O)[C@H](O)CC[C@]3(C)[C@H]2CC[C@@]1(O)CCl | 32 (≈ 82.7 µM) |
| > 32 | > 32 | > 32 | > 32 | > 32 | > 32 | 1 (≈ 2.87 µM) | > 32 | 8 (≈ 23 µM) | 2 (≈ 5.74 µM) | C=C[C@]1(C)CCC2=C(CC[C@@]3(O)[C@@](C)(C(=O)O)CCC[C@]23C)[C@H]1OC | > 32 |
| > 32 | > 32 | > 32 | > 32 | > 32 | > 32 | > 32 | > 32 | > 32 | > 32 | C=C1CC[C@]2(O)[C@](C)(CCC[C@]2(C)C(=O)O)[C@]1(O)CC/C(C)=C/CO | 8 (≈ 22.7 µM) |
| > 32 | > 32 | > 32 | 32 (≈ 87.8 µM) | > 32 | > 32 | > 32 | > 32 | > 32 | > 32 | C=C[C@]1(C)CCC2=C(CC[C@@]3(O)[C@@](C)(C(=O)O)[C@H](O)CC[C@]23C)[C@@H]1OC | 8 (≈ 21.9 µM) |
| – | 1 (≈ 1.08 µM) | – | – | 1 (≈ 1.08 µM) | – | – | 0.5 (≈ 0.541 µM) | – | 2 (≈ 2.16 µM) | C[C@@H]1[C@H](O)[C@@H](C)/C=C/C=C/C=C/C=C/C=C/C=C/C=C/[C@H](O[C@@H]2O[C@H](C)[C@@H](O)[C@H](N)[C@@H]2O)C[C@@H]2O[C@](O)(C[C@@H](O)C[C@@H](O)[C@H](O)CC[C@@H](O)C[C@@H](O)CC(=O)O[C@H]1C)C[C@H](O)[C@H]2C(=O)O [AMPHOTERICIN B] | – |

| Structure (SMILES) | MIC (Vibrio harveyi) [µg/mL] | MIC (Gaeumannomyces graminis) [µg/mL] | MIC (Edwardsiella tarda) [µg/mL] | MIC (Pseudomonas aeruginosa) [µg/mL] | MIC (Ceratobasidium cereale) [µg/mL] | MIC (Aeromonas hydrophila) [µg/mL] | MIC (Escherichia coli) [µg/mL] | MIC (Fusarium oxysporum) [µg/mL] | MIC (Micrococcus luteus) [µg/mL] | MIC [1] [µg/mL] | MIC (Vibrio parahaemolyticus) [µg/mL] |
| --- | --- | --- | --- | --- | --- | --- | --- | --- | --- | --- | --- |
| O=C(N[C@H](CO)[C@H](O)c1ccc([N+](=O)[O-])cc1)C(Cl)Cl [CHLORAMPHENICOL] | 2 (≈ 6.19 µM) | – | 0.5 (≈ 1.55 µM) | 2 (≈ 6.19 µM) | – | 4 (≈ 12.4 µM) | 1 (≈ 3.09 µM) | – | 1 (≈ 3.09 µM) | – | 0.5 (≈ 1.55 µM) |
